Results as given in patent EP4610269A1, “UROKINASE PLASMINOGEN ACTIVATOR SURFACE RECEPTOR (UPAR) LIGANDS FOR DIAGNOSTIC OR THERAPEUTIC USE” (3B Pharmaceuticals GmbH, priority 2024, dated 2025).
*1 amine or outer side, *2 acyl side, *3 side chain or, on linkers, in order; H or OH if unused. Where a SMILES comes first, the peptide text is derived from it. Bridges are numbered along the chain shown (N, C = ends). [ ]: non-standard residue; d: D form. The star is where a group is joined. DOTA = O=C(O)CN1CCN(CC(=O)O)CCN(CC(=O)*)CCN(CC(=O)O)CC1; X5 = O=C(O)CN1CCN(CC(=O)O)CCN([C@H](CCC(=O)*)C(=O)O)CC1; Pro(cis-4-F) = O=C(O)[C@@H]1C[C@H](F)CN1; Dopa = N[C@@H](Cc1ccc(O)c(O)c1)C(=O)O; Ethylenediamine = C(CN[*:2])N[*:1]; Hyp = O=C(O)[C@@H]1C[C@@H](O)CN1; Pentanoyl(4-Me) = CC(C)CCC(=O)*; Cit = NC(=O)NCCC[C@H](N)C(=O)O; Butoxycarbonyl = CCCCOC(=O)*; NMeNle = CCCC[C@H](NC)C(=O)O; Phg = N[C@H](C(=O)O)c1ccccc1; dOrn = NCCC[C@@H](N)C(=O)O; Nle = CCCC[C@H](N)C(=O)O; Aze = O=C(O)[C@@H]1CCN1; Nva = CCC[C@H](N)C(=O)O; Pentanoyl = CCCCC(=O)*; Aib = CC(C)(N)C(=O)O

Assays:
[1] = biological target: T1, uPAR-expressing HEC-265 human endometrial adenocarcinoma cells (Homo sapiens, UniProt Q03405); assay: Competitive FACS binding assay; conditions: pIC50 category of FACS binding
T1 construct: Cell surface uPAR-expressing HEC-265 human endometrial adenocarcinoma cells; host or cells: HEC-265
T1 sequence (Q03405 23-335): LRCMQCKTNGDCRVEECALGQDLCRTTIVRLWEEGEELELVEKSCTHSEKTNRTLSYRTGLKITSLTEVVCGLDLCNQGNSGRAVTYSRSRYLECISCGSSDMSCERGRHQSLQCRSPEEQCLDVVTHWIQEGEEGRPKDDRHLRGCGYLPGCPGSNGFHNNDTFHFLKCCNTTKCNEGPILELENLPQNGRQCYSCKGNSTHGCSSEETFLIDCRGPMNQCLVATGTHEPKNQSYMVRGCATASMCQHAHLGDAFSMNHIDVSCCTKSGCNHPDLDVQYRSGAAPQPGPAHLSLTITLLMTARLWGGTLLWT
In short: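 HEC-265 cells incubated 1 h at 4 °C with 10 nM biotinylated uPAR peptide tracer plus increasing test compound, then stained with APC-streptavidin on ice. Median APC fluorescence by flow cytometry; 4PL fit gives pIC50.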

human uPAR (uPAR-Fc) = biological target: T2, human uPAR (uPAR-Fc) (Homo sapiens, UniProt Q03405); assay: Surface plasmon resonance (SPR) assay, single cycle kinetics; type: binding; conditions: pKD category for uPAR SPR activity assay; uPAR-Fc on Protein A-Chip, single cycle kinetics, 25°C; read-out: pKD CAT (converted)
T2 construct: comprising amino acids Leu23-Arg303 according to UniProt entry Q03405.1; purchased R&D Systems 10378-UK-100
T2 sequence (Q03405 23-303): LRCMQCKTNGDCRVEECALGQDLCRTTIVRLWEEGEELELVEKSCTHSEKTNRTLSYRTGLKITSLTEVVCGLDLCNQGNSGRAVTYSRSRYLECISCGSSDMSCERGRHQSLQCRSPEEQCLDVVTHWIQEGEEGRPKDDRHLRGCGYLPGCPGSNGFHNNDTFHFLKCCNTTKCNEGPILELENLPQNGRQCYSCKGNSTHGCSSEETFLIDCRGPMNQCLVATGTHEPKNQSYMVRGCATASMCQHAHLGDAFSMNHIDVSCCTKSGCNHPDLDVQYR
In short: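 uPAR-Fc (Leu23-Arg303 extracellular domains, human IgG1 Fc) captured on Protein A chip to ~2000 RU; single-cycle kinetics at 25°C in HEPES running buffer pH 7.4 with 0.1% DMSO. KD from double-referenced sensorgrams fitted to 1:1 Langmuir model, reported as pKD.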

Row | SMILES | IC50 [1] | Kd (human uPAR (uPAR-Fc))
1 | CC[C@H](C)[C@@H]1NC(=O)[C@@H](C)NC(=O)[C@@H]2CCN2C(=O)[C@H](Cc2ccccc2)NC(=O)[C@H](Cc2ccc(O)cc2)NC(=O)[C@H](CCC(N)=O)NC(=O)[C@H](CCCNC(N)=O)NC(=O)[C@@H](NC(=O)CCC(C)C)CSSC[C@@H](C(N)=O)NC(=O)[C@H](CC(C)C)NC1=O [UPAR-426, iHex-[Cys-Cit-Gln-Tyr-Phe-Aze-ala-Ile-Leu-Cys]-NH2] ({Pentanoyl(4-Me)}-C[Cit]QYF[Aze][dA]ILC-NH2; disulfide 1-10) | ≤ 10 nM | 1.58 to 10 nM
2 | CCCC[C@H](NC)C(=O)N[C@H]1CSSC[C@@H](C(N)=O)NC(=O)[C@H](CCC)NC(=O)[C@H]([C@@H](C)CC)NC(=O)[C@@H]2C[C@@H](O)CN2C(=O)[C@@H]2C[C@H](F)CN2C(=O)[C@H](Cc2ccccc2)NC(=O)[C@H](Cc2ccc(O)cc2)NC(=O)[C@H](CCCCNC(=O)CN2CCN(CC(=O)O)CCN(CC(=O)O)CCN(CC(=O)O)CC2)NC(=O)[C@H]([C@@H](C)O)NC1=O [UPAR-428, H-Nmb-[Cys-Thr-Lys(DOTA)-Tyr-Phe-4Cfp-Hyp-Ile-Nva-Cys]-NH2] (H-[NMeNle]CTK(DOTA)YF[Pro(cis-4-F)][Hyp]I[Nva]C-NH2; disulfide 2-11) | ≤ 10 nM | < 1.58 nM
3 | CCC[C@@H]1NC(=O)[C@H]([C@@H](C)CC)NC(=O)[C@@H](C)NC(=O)[C@@H]2CCCN2C(=O)[C@H](Cc2ccccc2)NC(=O)[C@H](Cc2ccc(O)cc2)NC(=O)[C@H](CCC(N)=O)NC(=O)[C@H](CCCNC(N)=O)NC(=O)[C@@H](NC(=O)CCC(C)C)CSSC[C@@H](C(N)=O)NC1=O [UPAR-429, iHex-[Cys-Cit-Gln-Tyr-Phe-Pro-ala-Ile-Nva-Cys]-NH2] ({Pentanoyl(4-Me)}-C[Cit]QYFP[dA]I[Nva]C-NH2; disulfide 1-10) | ≤ 10 nM | < 1.58 nM
4 | CCCCC(=O)N[C@H]1CSSC[C@@H](C(=O)NCCN)NC(=O)[C@H](CCC)NC(=O)[C@H]([C@@H](C)CC)NC(=O)[C@@H]2C[C@@H](O)CN2C(=O)[C@@H]2CCCN2C(=O)[C@H](Cc2ccccc2)NC(=O)[C@H](Cc2ccc(O)cc2)NC(=O)[C@H](CCC(N)=O)NC(=O)[C@H](CCCNC(N)=O)NC1=O [UPAR-430, Pent-[Cys-Cit-Gln-Tyr-Phe-Pro-Hyp-Ile-Nva-Cys]-en] (Pentanoyl-C[Cit]QYFP[Hyp]I[Nva]C-Ethylenediamine; disulfide 1-10) | 12.6 to 31.6 nM | 1.58 to 10 nM
5 | CCCC[C@@H]1NC(=O)[C@H](CCCNC(=N)N)NC(=O)[C@@H](NC(=O)[C@H](CC(C)C)NC(=O)[C@H](CC(=O)O)NC(C)=O)CSSC[C@@H](C(N)=O)NC(=O)[C@H](CC(C)C)NC(=O)[C@H]([C@@H](C)CC)NC(=O)[C@@H]2CCCN2C(=O)[C@@H]2CCCN2C(=O)[C@H](Cc2ccccc2)NC(=O)[C@H](Cc2ccc(O)cc2)NC1=O [UPAR-431, Ac-Asp-Leu-[Cys-Arg-Nle-Tyr-Phe-Pro-Pro-Ile-Leu-Cys]-NH2] (Ac-DLCR[Nle]YFPPILC-NH2; disulfide 3-12) | ≤ 10 nM | < 1.58 nM
6 | CC[C@H](C)[C@@H]1NC(=O)[C@@H](C)NC(=O)[C@@H]2CCCN2C(=O)[C@H](Cc2ccccc2)NC(=O)[C@H](Cc2ccc(O)cc2)NC(=O)[C@H](CCCCNC(=O)CN2CCN(CC(=O)O)CCN(CC(=O)O)CCN(CC(=O)O)CC2)NC(=O)[C@H](CC(=O)O)NC(=O)[C@@H](NC(=O)[C@H](CC(C)C)NC(=O)[C@H](CC(=O)O)NC(C)=O)CSSC[C@@H](C(N)=O)NC(=O)[C@H](CC(C)C)NC1=O [UPAR-432, Ac-Asp-Leu-[Cys-Asp-Lys(DOTA)-Tyr-Phe-Pro-ala-Ile-Leu-Cys]-NH2] (Ac-DLCDK(DOTA)YFP[dA]ILC-NH2; disulfide 3-12) | 12.6 to 31.6 nM | 10 to 100 nM
7 | CCCCC(=O)N[C@H]1CSSC[C@@H](C(N)=O)NC(=O)[C@H](CCC)NC(=O)[C@H]([C@@H](C)CC)NC(=O)[C@@H]2C[C@@H](O)CN2C(=O)[C@H](CC(C)C)NC(=O)[C@H](Cc2ccccc2)NC(=O)[C@H](Cc2ccc(O)cc2)NC(=O)[C@H](CCC(N)=O)NC(=O)[C@H](CCCNC(=N)N)NC1=O [UPAR-433, Pent-[Cys-Arg-Gln-Tyr-Phe-Leu-Hyp-Ile-Nva-Cys]-NH2] (Pentanoyl-CRQYFL[Hyp]I[Nva]C-NH2; disulfide 1-10) | ≤ 10 nM | < 1.58 nM
8 | CCCCC(=O)N[C@H]1CSSC[C@@H](C(N)=O)NC(=O)[C@H](CCC)NC(=O)[C@H]([C@@H](C)CC)NC(=O)[C@@H](CCC(=O)O)NC(=O)[C@@H]2CCCN2C(=O)[C@H](Cc2ccccc2)NC(=O)[C@H](Cc2ccc(O)cc2)NC(=O)[C@H](CCC(N)=O)NC(=O)[C@H](CCCNC(=N)N)NC1=O [UPAR-436, Pent-[Cys-Arg-Gln-Tyr-Phe-Pro-glu-Ile-Nva-Cys]-NH2] (Pentanoyl-CRQYFP[dE]I[Nva]C-NH2; disulfide 1-10) | 12.6 to 31.6 nM | 10 to 100 nM
9 | CCCCC(=O)N[C@H]1CSSC[C@@H](C(N)=O)NC(=O)[C@H](CCC)NC(=O)[C@H](c2ccccc2)NC(=O)[C@@H]2C[C@@H](O)CN2C(=O)[C@@H]2CCCN2C(=O)[C@H](Cc2ccccc2)NC(=O)[C@H](Cc2ccc(O)cc2)NC(=O)[C@H](CCC(N)=O)NC(=O)[C@H](CCCNC(=N)N)NC1=O [UPAR-437, Pent-[Cys-Arg-Gln-Tyr-Phe-Pro-Hyp-Phg-Nva-Cys]-NHz] (Pentanoyl-CRQYFP[Hyp][Phg][Nva]C-NH2; disulfide 1-10) | ≤ 10 nM | < 1.58 nM
10 | CCCCC(=O)N[C@H]1CSSC[C@@H](C(N)=O)NC(=O)[C@H](CCC)NC(=O)[C@H]([C@@H](C)CC)NC(=O)[C@@H](CCCN)NC(=O)[C@@H]2CCCN2C(=O)[C@H](Cc2ccccc2)NC(=O)[C@H](Cc2ccc(O)cc2)NC(=O)[C@H](CCC(N)=O)NC(=O)[C@H](CCCNC(=N)N)NC1=O [UPAR-438, Pent-[Cys-Arg-Gln-Tyr-Phe-Pro-orn-Ile-Nva-Cys]-NH2] (Pentanoyl-CRQYFP[dOrn]I[Nva]C-NH2; disulfide 1-10) | 12.6 to 31.6 nM | 1.58 to 10 nM
11 | CC[C@H](C)[C@@H]1NC(=O)[C@@H](C)NC(=O)[C@@H]2C[C@@H](O)CN2C(=O)[C@H](Cc2ccccc2)NC(=O)[C@H](Cc2ccc(O)cc2)NC(=O)[C@H](CCC(N)=O)NC(=O)[C@H](CCCNC(N)=O)NC(=O)[C@@H](NC(=O)CCC(C)C)CSSC[C@@H](C(N)=O)NC(=O)[C@H](CC(C)C)NC1=O [UPAR-439, iHex-[Cys-Cit-Gln-Tyr-Phe-Hyp-ala-Ile-Leu-Cys]-NH2] ({Pentanoyl(4-Me)}-C[Cit]QYF[Hyp][dA]ILC-NH2; disulfide 1-10) | ≤ 10 nM | 1.58 to 10 nM
12 | CCCC[C@@H]1NC(=O)[C@H](CCCNC(=N)N)NC(=O)[C@@H](NC(=O)[C@H](CC(C)C)NC(=O)[C@H](CC(=O)O)NC(C)=O)CSSC[C@@H](C(N)=O)NC(=O)[C@H](CC(C)C)NC(=O)[C@H]([C@@H](C)CC)NC(=O)C(C)(C)NC(=O)[C@@H]2CCCN2C(=O)[C@H](Cc2ccccc2)NC(=O)[C@H](Cc2ccc(O)cc2)NC1=O [UPAR-440, Ac-Asp-Leu-[Cys-Arg-Nle-Tyr-Phe-Pro-Aib-Ile-Leu-Cys]-NH2] (Ac-DLCR[Nle]YFP[Aib]ILC-NH2; disulfide 3-12) | ≤ 10 nM | < 1.58 nM
13 | CCCCC(=O)N[C@H]1CSSC[C@@H](C(N)=O)NC(=O)[C@H](CCC)NC(=O)[C@H]([C@@H](C)CC)NC(=O)[C@@H]2C[C@@H](O)CN2C(=O)[C@@H]2CCCN2C(=O)[C@H](Cc2ccccc2)NC(=O)[C@H](CCCCN)NC(=O)[C@H](CCC(N)=O)NC(=O)[C@H](CCCNC(=N)N)NC1=O [UPAR-442, Pent-[Cys-Arg-Gln-Lys-Phe-Pro-Hyp-Ile-Nva-Cys]-NH2] (Pentanoyl-CRQKFP[Hyp]I[Nva]C-NH2; disulfide 1-10) | 39.8 to 100 nM | 10 to 100 nM
14 | CCCCOC(=O)N[C@H]1CSSC[C@@H](C(N)=O)NC(=O)[C@H](CCC)NC(=O)[C@H]([C@@H](C)CC)NC(=O)[C@@H]2C[C@@H](O)CN2C(=O)[C@@H]2C[C@H](F)CN2C(=O)[C@H](Cc2ccccc2)NC(=O)[C@H](Cc2ccc(O)c(O)c2)NC(=O)[C@H](CCCCNC(=O)CC[C@H](C(=O)O)N2CCN(CC(=O)O)CCN(CC(=O)O)CC2)NC(=O)[C@H]([C@@H](C)O)NC1=O [UPAR-444, Butoc-[Cys-Thr-Lys(NODAGA)-Dopa-Phe-4Cfp-Hyp-Ile-Nva-Cys]-NH2] (Butoxycarbonyl-CTK(X5)[Dopa]F[Pro(cis-4-F)][Hyp]I[Nva]C-NH2; disulfide 1-10) | ≤ 10 nM | < 1.58 nM
15 | CC[C@H](C)[C@@H]1NC(=O)[C@@H](C)NC(=O)[C@@H]2CCCN2C(=O)[C@H](Cc2ccccc2)NC(=O)[C@H](Cc2ccc(O)cc2)NC(=O)[C@H](CCCNC(N)=O)NC(=O)[C@H](CCCNC(N)=O)NC(=O)[C@@H](NC(=O)CCC(C)C)CSSC[C@@H](C(N)=O)NC(=O)[C@H](CC(C)C)NC1=O [UPAR-445, iHex-[Cys-Cit-Cit-Tyr-Phe-Pro-ala-Ile-Leu-Cys]-NH2] ({Pentanoyl(4-Me)}-C[Cit][Cit]YFP[dA]ILC-NH2; disulfide 1-10) | ≤ 10 nM | < 1.58 nM
16 | CC[C@H](C)[C@@H]1NC(=O)[C@@H]2CCN2C(=O)[C@@H]2CCCN2C(=O)[C@H](Cc2ccccc2)NC(=O)[C@H](Cc2ccc(O)cc2)NC(=O)[C@H](CCC(N)=O)NC(=O)[C@H](CCCNC(N)=O)NC(=O)[C@@H](NC(=O)CCC(C)C)CSSC[C@@H](C(N)=O)NC(=O)[C@H](CC(C)C)NC1=O [UPAR-446, iHex-[Cys-Cit-Gln-Tyr-Phe-Pro-Aze-Ile-Leu-Cys]-NH2] ({Pentanoyl(4-Me)}-C[Cit]QYFP[Aze]ILC-NH2; disulfide 1-10) | ≤ 10 nM | < 1.58 nM
